Legend:
Assay type in all cases: in vivo
[1] = system: Matricaria inodora; test: Pre-emergence herbicidal test, MATIN; parameters: key to herbicidal effect (0-9 scale) MATIN / herbicidal rating MATIN: A rating 0 indicates growth as untreated control; a rating 9 indicates death; details: for herbicidal effect (0-9 scale) MATIN: PRE, 21 days after spraying
[2] = system: Setaria viridis; test: Pre-emergence herbicidal test, SETVI; parameters: key to herbicidal effect (0-9 scale) SETVI / herbicidal rating SETVI: A rating 0 indicates growth as untreated control; a rating 9 indicates death; details: for herbicidal effect (0-9 scale) SETVI: PRE, 21 days after spraying
[3] = system: Abutilon theophrasti; test: Post-emergence herbicidal test, ABUTH; parameters: key to herbicidal effect (0-9 scale) ABUTH / herbicidal rating ABUTH: A rating 0 indicates growth as untreated control; a rating 9 indicates death; details: POST, 21 days after spraying
Summary of the method: (§1)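 Herbicidal effect is recorded on a linear 0-9 scale, where 0 means growth like untreated control and 9 means death, with one unit approximating 10% more effect.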

[4] = system: Stellaria media; test: Post-emergence herbicidal test, STEME; parameters: key to herbicidal effect (0-9 scale) STEME / herbicidal rating STEME: A rating 0 indicates growth as untreated control; a rating 9 indicates death; details: POST, 21 days after spraying
Summary of the method: as §1

[5] = system: Ambrosia; test: Pre-emergence herbicidal test, Ambrosia; details: 100 g/ha
Procedure: (§2) The pre-emergence tests involve spraying a liquid formulation of the compound onto the soil in which the seeds of the plant species mentioned above has recently been sown.
(§3) The soil used in the tests is a prepared horticultural loam. The formulations used in the tests are prepared from solutions of the test compounds in acetone containing 0.4% by weight of an alkylphenol/ethylene oxide condensate available under the trade mark TRITON X-155. […] In these tests untreated sown soil are used as controls.
(§4) The herbicidal effects of the test compounds are assessed visually twenty-one days after spraying the foliage and the soil and are recorded on a 0-9 scale. A rating 0 indicates growth as untreated control, a rating 9 indicates death. An increase of 1 unit on the linear scale approximates to a 10% increase in the level of effect.

[6] = system: Echinochloa crus-galli; test: Post-emergence herbicidal test, ECHCG; details: 21 days after spraying
Summary of the method: as §1

[7] = system: representative range of plants; test: Herbicidal activity, pre- and post-emergence, overall; details: both in pre- and post-emergence
Procedure: (§5) To evaluate their herbicidal activity, compounds according to the invention are tested using a representative range of plants:
as §2
The soil used in the tests is a prepared horticultural loam. The formulations used in the tests are prepared from solutions of the test compounds in acetone containing 0.4% by weight of an alkylphenol/ethylene oxide condensate available under the trade mark TRITON X-155. These acetone solutions are diluted with water and the resulting formulations applied at dosage levels corresponding to 1000 g and 250 g/ha of active material per hectare in a volume equivalent to 900 litres per hectare. In these tests untreated sown soil are used as controls.
These acetone solutions are diluted with water and the resulting formulations applied at dosage levels equivalent to about 1000, 800, 400, 250 or 100 g/ha per hectare of test compound per pot. After spraying, the plants are placed on greenhouse benches and are cared for in the usual manner, commensurate with conventional greenhouse practices.
as §4

[8] = system: Galium aparine; test: Post-emergence herbicidal test, GALAP; parameters: key to herbicidal effect (0-9 scale) GALAP / herbicidal rating GALAP: A rating 0 indicates growth as untreated control; a rating 9 indicates death; details: for herbicidal effect (0-9 scale) GALAP: POST, 21 days after spraying
Summary of the method: as §1

[9] = system: Alopecurus myosuroides; test: Pre-emergence herbicidal test, ALOMY; details: PRE, 21 days after spraying
[10] = system: Ipomoea hederacea; test: Pre-emergence herbicidal test, IPOHE; parameters: key: A rating 0 indicates growth as untreated control; a rating 9 indicates death; details: 21 days after spraying
[11] = system: Triticum aestivum; test: Pre-emergence herbicidal test, TRZAW; details: 21 days after spraying
Procedure: as §5, §2, §3, §4

[12] = system: Zea mays; test: Post-emergence herbicidal test, ZEAMX; details: 21 days after spraying
Summary of the method: as §1

[13] = system: Abutilon theophrasti; test: Pre-emergence herbicidal test, ABUTH; parameters: key to herbicidal effect (0-9 scale) ABUTH / herbicidal rating ABUTH: A rating 0 indicates growth as untreated control; a rating 9 indicates death; details: for herbicidal effect (0-9 scale) ABUTH: PRE, 21 days after spraying
[14] = system: Matricaria inodora; test: Post-emergence herbicidal test, MATIN; parameters: key to herbicidal effect (0-9 scale) MATIN / herbicidal rating MATIN: A rating 0 indicates growth as untreated control; a rating 9 indicates death; details: POST, 21 days after spraying
Summary of the method: as §1

[15] = system: Triticum aestivum; test: Post-emergence herbicidal test, TRZAW; parameters: key to herbicidal effect (0-9 scale) TRZAW: A rating 0 indicates growth as untreated control; a rating 9 indicates death; details: for herbicidal effect (0-9 scale) TRZAW: POST, 21 days after spraying
Procedure: as §5
(§6) […] After spraying, the plants are placed on greenhouse benches and are cared for in the usual manner, commensurate with conventional greenhouse practices.
as §4

[16] = system: Ipomoea hederacea; test: Post-emergence herbicidal test, IPOHE; parameters: key to herbicidal effect (0-9 scale) IPOHE / herbicidal rating IPOHE: A rating 0 indicates growth as untreated control; a rating 9 indicates death; details: POST, 21 days after spraying
Summary of the method: (§7)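 Compounds in acetone solution were diluted with water and sprayed post-emergence onto foliage and soil at about 1000, 800, 400, 250 or 100 g/ha. Plants were kept on greenhouse benches under conventional care.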

[17] = system: Cyperus; test: Pre-emergence herbicidal test, Cyperus; details: 100 g/ha
Procedure: as §2, §3, §4

[18] = system: Alopecurus myosuroides; test: Post-emergence herbicidal test, ALOMY; details: 21 days after spraying
Summary of the method: as §7

[19] = system: Setaria viridis; test: Post-emergence herbicidal test, SETVI; parameters: key to herbicidal effect (0-9 scale) SETVI / herbicidal rating SETVI: A rating 0 indicates growth as untreated control; a rating 9 indicates death; details: for herbicidal effect (0-9 scale) SETVI: POST, 21 days after spraying
Summary of the method: as §1

[20] = system: representative range of plants; test: Post-emergence herbicidal test, summary over the plants tested
Procedure: as §5, §6, §4

[21] = system: Echinochloa crus-galli; test: Pre-emergence herbicidal test, ECHCG; details: 21 days after spraying
[22] = system: Zea mays; test: Pre-emergence herbicidal test, ZEAMX; parameters: key to herbicidal effect (0-9 scale) ZEAMX / herbicidal rating ZEAMX: A rating 0 indicates growth as untreated control; a rating 9 indicates death; details: for herbicidal effect (0-9 scale) ZEAMX: PRE, 21 days after spraying
[23] = system: representative range of plants; test: Pre-emergence herbicidal test, summary over the plants tested; details: 400 g/ha
Procedure: as §5, §2, §3, §4

[24] = system: Galium aparine; test: Pre-emergence herbicidal test, GALAP; details: PRE, 21 days after spraying
[25] = system: Stellaria media; test: Pre-emergence herbicidal test, STEME; parameters: key to herbicidal effect (0-9 scale) STEME / herbicidal rating STEME: A rating 0 indicates growth as untreated control; a rating 9 indicates death; details: PRE, 21 days after spraying

SMILES: Cn1c(C(F)(F)F)cc(=O)n(-n2ncc3cc([N+](=O)[O-])ccc32)c1=O [Example 7]
- herbicidal effect (0-9 scale) MATIN ([1]; 100 g/ha): 9
- herbicidal effect (0-9 scale) MATIN ([1]; 400 g/ha): 9
- control of Matricaria ([1]; pre-emergence, 100 g/ha): good control
- herbicidal effect (0-9 scale) SETVI ([2]; 100 g/ha): 8
- herbicidal effect (0-9 scale) SETVI ([2]; 400 g/ha): 9
- control of Setaria ([2]; pre-emergence, 100 g/ha): good control
- herbicidal effect (0-9 scale) ABUTH ([3]; 25 g/ha): 8
- herbicidal effect (0-9 scale) ABUTH ([3]; 100 g/ha): 9
- herbicidal effect (0-9 scale) ABUTH ([3]; 400 g/ha): 9
- herbicidal effect (0-9 scale) STEME ([4]; 25 g/ha): 4
- herbicidal effect (0-9 scale) STEME ([4]; 100 g/ha): 8
- herbicidal effect (0-9 scale) STEME ([4]; 400 g/ha): 9
- control of Ambrosia [5]: good control
- herbicidal effect (0-9 scale) ECHCG ([6]; 25 g/ha): 2
- herbicidal effect (0-9 scale) ECHCG ([6]; 100 g/ha): 7
- herbicidal effect (0-9 scale) ECHCG ([6]; 400 g/ha): 8
- herbicidal performance [7]: good performance
- herbicidal effect (0-9 scale) GALAP ([8]; 25 g/ha): 6
- herbicidal effect (0-9 scale) GALAP ([8]; 100 g/ha): 8
- herbicidal effect (0-9 scale) GALAP ([8]; 400 g/ha): 9
- control of Galium aparine ([8]; post-emergence, 100 g/ha): excellent control
- herbicidal effect (0-9 scale) ALOMY ([9]; 100 g/ha): 3
- herbicidal effect (0-9 scale) ALOMY ([9]; 400 g/ha): 6
- herbicidal effect (0-9 scale) IPOHE ([10]; 100 g/ha): 7
- herbicidal effect (0-9 scale) IPOHE ([10]; 400 g/ha): 9
- herbicidal effect (0-9 scale) TRZAW ([11]; 100 g/ha): 1
- herbicidal effect (0-9 scale) TRZAW ([11]; 400 g/ha): 4
- herbicidal effect (0-9 scale) ZEAMX ([12]; 25 g/ha): 2
- herbicidal effect (0-9 scale) ZEAMX ([12]; 100 g/ha): 3
- herbicidal effect (0-9 scale) ZEAMX ([12]; 400 g/ha): 5
- herbicidal effect (0-9 scale) ABUTH ([13]; 100 g/ha): 9
- herbicidal effect (0-9 scale) ABUTH ([13]; 400 g/ha): 9
- control of Abutilon ([13]; pre-emergence, 100 g/ha): good control
- herbicidal effect (0-9 scale) MATIN ([14]; 25 g/ha): 7
- herbicidal effect (0-9 scale) MATIN ([14]; 100 g/ha): 8
- herbicidal effect (0-9 scale) MATIN ([14]; 400 g/ha): 9
- herbicidal effect (0-9 scale) TRZAW ([15]; 25 g/ha): 0
- herbicidal effect (0-9 scale) TRZAW ([15]; 100 g/ha): 1
- herbicidal effect (0-9 scale) TRZAW ([15]; 400 g/ha): 3
- wheat tolerance ([15]; post-emergence, 100 g/ha): good wheat tolerance
- herbicidal effect (0-9 scale) IPOHE ([16]; 25 g/ha): 9
- herbicidal effect (0-9 scale) IPOHE ([16]; 100 g/ha): 9
- herbicidal effect (0-9 scale) IPOHE ([16]; 400 g/ha): 9
- control of Cyperus [17]: good control
- herbicidal effect (0-9 scale) ALOMY ([18]; 25 g/ha): 2
- herbicidal effect (0-9 scale) ALOMY ([18]; 100 g/ha): 4
- herbicidal effect (0-9 scale) ALOMY ([18]; 400 g/ha): 6
- herbicidal effect (0-9 scale) SETVI ([19]; 25 g/ha): 8
- herbicidal effect (0-9 scale) SETVI ([19]; 100 g/ha): 9
- herbicidal effect (0-9 scale) SETVI ([19]; 400 g/ha): 9
- control of Setaria ([19]; post-emergence, 100 g/ha): excellent control
- control of all of the broadleaf weeds ([20]; 100 g/ha): excellent control
- control of the weeds ([20]; dose not given): good cross spectrum control on both broadleaf weeds and grasses except Alopecurus
- crop tolerance ([20]; dose not given): no observable crop tolerance
- herbicidal effect (0-9 scale) ECHCG ([21]; 100 g/ha): 7
- herbicidal effect (0-9 scale) ECHCG ([21]; 400 g/ha): 8
- herbicidal effect (0-9 scale) ZEAMX ([22]; 100 g/ha): 0
- herbicidal effect (0-9 scale) ZEAMX ([22]; 400 g/ha): 4
- selectivity in maize ([22]; pre-emergence, 100 g/ha): surprisingly good selectivity
- control of the weeds [23]: all of the weeds except Alopecurus were well controlled
- herbicidal effect (0-9 scale) GALAP ([24]; 100 g/ha): 4
- herbicidal effect (0-9 scale) GALAP ([24]; 400 g/ha): 8
- herbicidal effect (0-9 scale) STEME ([25]; 100 g/ha): 5
- herbicidal effect (0-9 scale) STEME ([25]; 400 g/ha): 9
